Results taken from article PMC10321317 (Genome Biology and Evolution, 2023).
Entries after “also recorded” stand apart in the source; their conditions may differ. Square brackets hold non-standard residues; d marks the D form. Ends that are not written are not given here. Peptide text beside a SMILES is read from it. pGlu = O=C1CC[C@@H](C(=O)O)N1

How the values were obtained:
B. floridae GnRHR1 = molecular target: T1, B. floridae GnRHR1 (Branchiostoma floridae, UniProt C0IP19); test: Luminescence response in HEK293-G5a cells expressing B. floridae GnRHR1 (with Gαqi9); assay type: cell-based
T1 sequence (C0IP19 1-403): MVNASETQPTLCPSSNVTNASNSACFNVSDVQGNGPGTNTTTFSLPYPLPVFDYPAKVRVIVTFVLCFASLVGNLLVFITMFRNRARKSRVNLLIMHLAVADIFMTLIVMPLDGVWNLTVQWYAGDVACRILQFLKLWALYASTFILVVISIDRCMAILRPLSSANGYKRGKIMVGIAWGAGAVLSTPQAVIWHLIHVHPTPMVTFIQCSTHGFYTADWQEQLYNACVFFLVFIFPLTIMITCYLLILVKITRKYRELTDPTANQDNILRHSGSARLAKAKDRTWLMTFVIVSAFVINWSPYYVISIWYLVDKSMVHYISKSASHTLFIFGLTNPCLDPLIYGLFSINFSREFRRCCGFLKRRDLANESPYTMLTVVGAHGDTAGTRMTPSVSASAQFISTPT
Excerpt: (§1) For this purpose, we expressed individual receptors in a heterologous expression system comprising human embryo kidney 293 cells (HEK293-G5a) cells and monitored luminescence responses to three synthetic peptides.
(§2) Five millimoles of stock solutions of all peptides were first prepared in 50% Dimethyl sulfoxide. […] These receptors were codon-optimized for mammalian cell lines, synthesized and cloned into pcDNA3.4(+) vector by Genscript synthesis services. A 5′ partial Kozak translation initiation sequence (CCACC) was also included to improve expression. The codon-optimized receptor sequences are provided in supplementary file 9, Supplementary Material online. HEK293-G5a (Angio-proteomie CAT no. cAP-0200GFP-AEQ-Cyto) cells were cultured in 96 well-plates containing 100 μl of Dublecco’s Modified Eagle medium (DMEM; Thermo; Cat. No. 10566016) supplemented with 10% foetal bovine serum (Thermo; Cat. No. 10082147). The plates were kept in an incubator at 37°C and 5% CO2. Upon reaching 85% confluency, cells were co-transfected with plasmids encoding individual receptors or the empty pcDNA3.1 + vector (control), and the Gαqi9 promiscuous protein [Addgene; Cat. No. 125711 {[Masharina et al. 2012]}], as described previously ([Yañez-Guerra et al. 2022]). Transfections were carried out with 60 ng of each plasmid and 0.45 μl of the transfection reagent Transfectamine 5,000 (AAT-bioquest; Cat. No. 60022) per well. Two days post-transfection, the media was replaced with fresh DMEM medium supplemented with […] coelenterazine-H (Thermo Fisher Scientific; Cat. No. C6780). The cells were incubated for 2 h and then used for the luminescence assay. Various concentrations of the three synthetic peptides ranging from 10^−4 M to 10^−12 M were prepared in DMEM media and tested on the cells. Luminescence levels were recorded and integrated over a 65-s measurement period in a FlexStation 3 Multi-Mode Microplate Reader (Molecular Devices). A minimum of two independent transfections (biological replicates) for each receptor and two–three technical replicates for each peptide concentration were performed. […]

B. floridae GnRHR2 = molecular target: T2, B. floridae GnRHR2 (Branchiostoma floridae, UniProt C0IP20); test: Luminescence response in HEK293-G5a cells expressing B. floridae GnRHR2 (with Gαqi9); assay type: cell-based
T2 sequence (C0IP20 1-397): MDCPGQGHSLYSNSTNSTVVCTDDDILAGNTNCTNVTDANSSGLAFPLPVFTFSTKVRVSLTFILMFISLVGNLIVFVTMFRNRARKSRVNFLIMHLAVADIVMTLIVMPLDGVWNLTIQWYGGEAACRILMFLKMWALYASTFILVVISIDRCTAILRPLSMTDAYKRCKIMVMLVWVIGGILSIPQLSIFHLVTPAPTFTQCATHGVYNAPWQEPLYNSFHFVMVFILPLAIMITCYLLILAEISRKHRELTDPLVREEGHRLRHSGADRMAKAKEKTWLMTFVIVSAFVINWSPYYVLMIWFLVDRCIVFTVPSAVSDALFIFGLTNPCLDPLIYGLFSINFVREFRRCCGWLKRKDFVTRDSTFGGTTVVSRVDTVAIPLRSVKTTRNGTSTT
Excerpt: as §1, §2

B. floridae CRZR1 = molecular target: T3, B. floridae CRZR1 (Branchiostoma floridae, UniProt C0IP22); test: Luminescence response in HEK293-G5a cells expressing B. floridae CRZR1 (with Gαqi9); assay type: cell-based
T3 sequence (C0IP22 1-831): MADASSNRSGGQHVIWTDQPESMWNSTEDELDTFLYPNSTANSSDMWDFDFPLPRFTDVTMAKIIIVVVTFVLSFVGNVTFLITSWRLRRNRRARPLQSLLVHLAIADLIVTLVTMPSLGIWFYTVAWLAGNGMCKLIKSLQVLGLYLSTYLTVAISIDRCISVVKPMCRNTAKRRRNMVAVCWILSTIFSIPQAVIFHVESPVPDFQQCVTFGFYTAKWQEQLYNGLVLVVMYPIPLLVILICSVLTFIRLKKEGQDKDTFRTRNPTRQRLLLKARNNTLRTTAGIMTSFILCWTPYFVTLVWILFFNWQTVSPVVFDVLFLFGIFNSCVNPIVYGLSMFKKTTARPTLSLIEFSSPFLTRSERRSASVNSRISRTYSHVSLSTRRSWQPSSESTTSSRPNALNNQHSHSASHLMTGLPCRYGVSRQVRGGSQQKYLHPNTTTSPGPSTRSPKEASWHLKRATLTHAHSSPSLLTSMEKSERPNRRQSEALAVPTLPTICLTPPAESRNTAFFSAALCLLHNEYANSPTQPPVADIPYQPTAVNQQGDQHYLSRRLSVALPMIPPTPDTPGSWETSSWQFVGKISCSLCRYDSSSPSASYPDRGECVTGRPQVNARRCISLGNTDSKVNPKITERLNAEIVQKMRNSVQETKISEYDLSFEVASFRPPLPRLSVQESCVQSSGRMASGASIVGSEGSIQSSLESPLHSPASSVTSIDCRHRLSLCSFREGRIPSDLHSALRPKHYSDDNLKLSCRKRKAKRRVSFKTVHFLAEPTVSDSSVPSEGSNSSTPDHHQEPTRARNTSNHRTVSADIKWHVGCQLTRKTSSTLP
Excerpt: as §1, §2

B. floridae CRZR2 = molecular target: T4, B. floridae CRZR2 (Branchiostoma floridae, UniProt C4N9P5); test: Luminescence response in HEK293-G5a cells expressing B. floridae CRZR2 (with Gαqi9); assay type: cell-based
T4 sequence (C4N9P5 1-421): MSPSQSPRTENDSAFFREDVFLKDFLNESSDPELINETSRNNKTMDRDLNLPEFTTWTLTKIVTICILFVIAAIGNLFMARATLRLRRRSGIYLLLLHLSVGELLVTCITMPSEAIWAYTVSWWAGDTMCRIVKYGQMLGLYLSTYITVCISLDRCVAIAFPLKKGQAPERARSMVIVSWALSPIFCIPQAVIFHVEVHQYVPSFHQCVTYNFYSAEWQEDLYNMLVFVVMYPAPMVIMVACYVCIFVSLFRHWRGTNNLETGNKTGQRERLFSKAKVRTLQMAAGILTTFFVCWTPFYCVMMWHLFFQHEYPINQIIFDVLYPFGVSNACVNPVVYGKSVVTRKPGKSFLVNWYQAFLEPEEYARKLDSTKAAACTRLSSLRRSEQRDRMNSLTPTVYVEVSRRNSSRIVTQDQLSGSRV
Excerpt: as §1
Five millimoles of stock solutions of all peptides were first prepared in 50% Dimethyl sulfoxide. […] These receptors were codon-optimized for mammalian cell lines, synthesized and cloned into pcDNA3.4(+) vector by Genscript synthesis services. A 5′ partial Kozak translation initiation sequence (CCACC) was also included to improve expression. The codon-optimized receptor sequences are provided in supplementary file 9, Supplementary Material online. HEK293-G5a (Angio-proteomie CAT no. cAP-0200GFP-AEQ-Cyto) cells were cultured in 96 well-plates containing 100 μl of Dublecco’s Modified Eagle medium (DMEM; Thermo; Cat. No. 10566016) supplemented with 10% foetal bovine serum (Thermo; Cat. No. 10082147). The plates were kept in an incubator at 37°C and 5% CO2. […] The cells were incubated for 2 h and then used for the luminescence assay. […] Luminescence levels were recorded and integrated over a 65-s measurement period in a FlexStation 3 Multi-Mode Microplate Reader (Molecular Devices). […]

B. floridae CRZR3 = molecular target: T5, B. floridae CRZR3 (Branchiostoma floridae, UniProt A0A9J7HT38); test: Luminescence response in HEK293-G5a cells expressing B. floridae CRZR3 (with Gαqi9); assay type: cell-based; settings: for EC50: fig. 2D, HEK293-G5a, Gαqi9, 10^−4 M to 10^−12 M in DMEM, luminescence integrated over 65 s, normalized to maximum response, four-parameter curve, minimum of two independent transfections, read-out: EC50 values for the dose–response curves, CRZR3
T5 sequence (A0A9J7HT38 1-394): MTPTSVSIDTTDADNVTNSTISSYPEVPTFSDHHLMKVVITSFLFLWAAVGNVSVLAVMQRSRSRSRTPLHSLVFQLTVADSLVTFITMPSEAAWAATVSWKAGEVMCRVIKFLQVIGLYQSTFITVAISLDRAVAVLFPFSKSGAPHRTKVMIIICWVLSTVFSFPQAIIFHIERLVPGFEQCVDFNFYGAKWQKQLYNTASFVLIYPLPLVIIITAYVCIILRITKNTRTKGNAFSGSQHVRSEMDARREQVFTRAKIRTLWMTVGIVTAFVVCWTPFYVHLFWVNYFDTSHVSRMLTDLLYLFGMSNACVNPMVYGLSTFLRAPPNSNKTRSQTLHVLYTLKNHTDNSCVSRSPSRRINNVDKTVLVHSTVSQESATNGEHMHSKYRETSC
Excerpt: as §1
Five millimoles of stock solutions of all peptides were first prepared in 50% Dimethyl sulfoxide. […] These receptors were codon-optimized for mammalian cell lines, synthesized and cloned into pcDNA3.4(+) vector by Genscript synthesis services. A 5′ partial Kozak translation initiation sequence (CCACC) was also included to improve expression. The codon-optimized receptor sequences are provided in supplementary file 9, Supplementary Material online. HEK293-G5a (Angio-proteomie CAT no. cAP-0200GFP-AEQ-Cyto) cells were cultured in 96 well-plates containing 100 μl of Dublecco’s Modified Eagle medium (DMEM; Thermo; Cat. No. 10566016) supplemented with 10% foetal bovine serum (Thermo; Cat. No. 10082147). The plates were kept in an incubator at 37°C and 5% CO2. Upon reaching 85% confluency, cells were co-transfected with plasmids encoding individual receptors or the empty pcDNA3.1 + vector (control), and the Gαqi9 promiscuous protein [Addgene; Cat. No. 125711 {[Masharina et al. 2012]}], as described previously ([Yañez-Guerra et al. 2022]). Transfections were carried out with 60 ng of each plasmid and 0.45 μl of the transfection reagent Transfectamine 5,000 (AAT-bioquest; Cat. No. 60022) per well. Two days post-transfection, the media was replaced with fresh DMEM medium supplemented with […] coelenterazine-H (Thermo Fisher Scientific; Cat. No. C6780). The cells were incubated for 2 h and then used for the luminescence assay. Various concentrations of the three synthetic peptides ranging from 10^−4 M to 10^−12 M were prepared in DMEM media and tested on the cells. Luminescence levels were recorded and integrated over a 65-s measurement period in a FlexStation 3 Multi-Mode Microplate Reader (Molecular Devices). A minimum of two independent transfections (biological replicates) for each receptor and two–three technical replicates for each peptide concentration were performed. The responses were normalized to the maximum response obtained following the addition of peptide in each experiment (100% activation) and to the response obtained with the vehicle media (0% activation). Normalized data from the independent transfections was used to plot the dose–response curves (fitted with a four-parameter curve) using the package drc in R ([Ritz et al. 2015]). The raw data for the emtpy-vector control and receptor characterization are provided in supplementary files 10 and 11, Supplementary Material online, respectively. The script used for the dose–response curve analysis is available on Github (https://github.com/Imnotabioinformatician/Branchiostoma_Dose_response_curves).

[1] = molecular target: one of the two CRZ-like receptors; parameters: method as in Roch, Tello, et al. 2014; settings: ref Roch, Tello, et al. 2014; cited from earlier work

Molecule: CC[C@H](C)[C@H](NC(=O)[C@@H]1CCC(=O)N1)C(=O)N[C@@H](CC(C)C)C(=O)N[C@@H](CS)C(=O)N[C@@H](C)C(=O)N[C@@H](CCCNC(=N)N)C(=O)N[C@@H](C)C(=O)N[C@@H](Cc1ccccc1)C(=O)N[C@H](C(=O)N[C@@H](Cc1ccc(O)cc1)C(=O)N[C@H](C(=O)N[C@@H](Cc1c[nH]cn1)C(=O)N[C@H](C(=O)N[C@@H](Cc1c[nH]c2ccccc12)C(N)=O)[C@@H](C)O)[C@@H](C)O)[C@@H](C)O [CRZ-ext] ([pGlu]ILCARAFTYTHTW-NH2)
- activation of GnRHR1 (in words) (B. floridae GnRHR1; HEK293-G5a cells, luminescence): Neither of these two receptors were activated
- activation of GnRHR2 (in words) (B. floridae GnRHR2; HEK293-G5a cells, luminescence): Neither of these two receptors were activated
- EC50 for the response, CRZR1 (in words) (B. floridae CRZR1): equally high
- activation of CRZR1 (in words) (B. floridae CRZR1): all activated by CRZ, GnRH, and CRZ-ext; also recorded: also activated by CRZ-ext
- EC50 for the response, CRZR2 (in words) (B. floridae CRZR2): high nanomolar range
- activation of CRZR2 (in words) (B. floridae CRZR2): all activated by CRZ, GnRH, and CRZ-ext
- EC50 for the response, CRZR3 (in words) (B. floridae CRZR3; HEK293-G5a cells, luminescence): equally high
- activation of CRZR3 (in words) (B. floridae CRZR3; HEK293-G5a cells, luminescence): all activated by CRZ, GnRH, and CRZ-ext; also recorded: also activated by CRZ-ext
- EC50 (B. floridae CRZR3): 950 nM
- activation of one of the two CRZ-like receptors (in words) [1]: high nanomolar range

Molecule: FTYTHTW-NH2 [CRZ, FTYTHTW-NH2]
- EC50 (B. floridae CRZR3): 6.9 nM

Molecule: YSYSYGFAP-NH2
- EC50 for the response, GnRHR1 (in words) (B. floridae GnRHR1; HEK293-G5a cells, luminescence): low nanomolar range
- EC50 (B. floridae GnRHR1; fig. 2D, HEK293-G5a, Gαqi9, 10^−4 M to 10^−12 M in DMEM, luminescence integrated over 65 s, normalized to maximum response, four-parameter curve, minimum of two independent transfections, read-out: EC50 values for the dose–response curves, GnRHR1): 3.2 nM
- EC50 for the response, GnRHR2 (in words) (B. floridae GnRHR2; HEK293-G5a cells, luminescence): low nanomolar range
- EC50 (B. floridae GnRHR2; fig. 2D, HEK293-G5a, Gαqi9, 10^−4 M to 10^−12 M in DMEM, luminescence integrated over 65 s, normalized to maximum response, four-parameter curve, minimum of two independent transfections, read-out: EC50 values for the dose–response curves, GnRHR2): 2.2 nM
- EC50 for the response, CRZR1 (in words) (B. floridae CRZR1): mid-to-low nanomolar physiological range
- EC50 (B. floridae CRZR3): 3800 nM
